Measurements as given in the RepoRT retention time repository (doi:10.1021/acs.analchem.1c00972).

Assays:
[1] = RP, Waters ACQUITY UPLC BEH C18, 100 × 1 mm, 1.7 µm, 50 °C, 0.3 mL/min, estimated dead time 0.17 min; A: water + 10 mM ammonium bicarbonate; B: 10% water + 90% methanol + 10 mM ammonium bicarbonate; gradient (min/%B) 0/0 15/100 21/100 22/0 30/0; conditions: stereoisomer not certain
[2] = RP, Waters ACQUITY UPLC BEH C18, 100 × 1 mm, 1.7 µm, 50 °C, 0.3 mL/min, estimated dead time 0.17 min; A: water + 0.1% formic acid + 20 mM ammonium formate; B: methanol + 0.1% formic acid + 20 mM ammonium formate; gradient (min/%B) 0/0 15/100 21/100 22/0 30/0; conditions: stereoisomer not certain

| SMILES | LC retention time [1] [min] | LC retention time [2] [min] |
| --- | --- | --- |
| CC12CCC(=O)C=C1CCC1C2CCC2(C)C1CCC2(C)O (stereo not drawn) [17alpha-Methyltestosterone] | 15 | 14.7 |
| CCN1CCCC1CNC(=O)c1cc(S(N)(=O)=O)ccc1OC (stereo not drawn) [(s)-(-)-Sulpiride] | 10.3 | 6.03 |
| CC(=O)N(C)N(C(=O)C(=O)N(C)C)c1ccccc1 [AMDOPH] | 9.52 | 9.42 |
| CCOCN(C(=O)CCl)c1c(C)cccc1CC [Acetochlor] | 15.3 | 15 |
| CSC(=O)c1cccc2nnsc12 [Acibenzolar-S-methyl] | 14 | 13.7 |
| CCN1CC2(COC)C(O)CC(OC)C34C5CC6(O)C(OC)C(O)C(OC(C)=O)(C5C6OC(=O)c5ccccc5)C(C(OC)C23)C14 (stereo not given) [Aconitin] | 15.7 | 12.1 |
| c1ccc2nc3ccccc3cc2c1 [Acridin] | 14.6 | 8.84 |
| Nc1ncnc2nc[nH]c12 [Adenine] | 2.55 | 5.28 |
| COC(=O)C1=COC(C)C2CN3CCc4c([nH]c5ccccc45)C3CC12 (stereo not given) [Ajmalicine] | 15.5 | 10.1 |
| CCc1cccc(CC)c1N(COC)C(=O)C(=O)O [Alachlor tert-oxanilic acid (OA)] | 15.9 | 15.5 |
| CCOC(=O)CCN(Cc1ccccc1)SN(C)C(=O)ON=C(C)SC [Alanycarb] | 15.8 | 15.5 |
| CCCSc1ccc2nc(NC(=O)OC)[nH]c2c1 [Albendazole] | 14.2 | 13.1 |
| CNC(=O)ON=CC(C)(C)S(C)=O (stereo not given) [Aldicarb Sulfoxide] | 6.62 | 6.57 |
| CNC(=O)ON=CC(C)(C)SC [Aldicarb] | 16.4 | 16.1 |
| COc1cc2nc(N(C)CCCNC(=O)C3CCCO3)nc(N)c2cc1OC (stereo not given) [Alfuzosin] | 12.3 | 9.73 |
| Nc1c(Br)cc(Br)cc1CNC1CCC(O)CC1 (stereo not given) [Ambroxol] | 15.4 | 10.6 |
| CC(=O)OCC(=O)C12OC3(CCCC3)OC1CC1C3CCC4=CC(=O)C=CC4(C)C3(F)C(O)CC12C (stereo not given) [Amcinonide] | 16 | 15.6 |
| CCCCc1oc2ccccc2c1C(=O)c1cc(I)c(OCCN(CC)CC)c(I)c1 [Amiodarone] | 20.1 | 16.7 |
| CC[N+]1([O-])CCCC1CNC(=O)c1cc(S(=O)(=O)CC)c(N)cc1OC (stereo not given) [Amisulpride N-Oxide] | 8.43 | 8.4 |
| CC1(C)SC2C(NC(=O)C(N)c3ccc(O)cc3)C(=O)N2C1C(=O)O (stereo not given) [Amoxicillin] | 6.74 | 5.66 |
| CC(C)(C#N)c1cc(Cn2cncn2)cc(C(C)(C)C#N)c1 [Anastrozole] | 11.5 | 11.3 |
| NCC(O)COc1ccc(CC(N)=O)cc1 (stereo not given) [Atenolol-desisopropyl] | 5.61 | 12.3 |

| SMILES | LC retention time [1] [min] | LC retention time [2] [min] |
| --- | --- | --- |
| CC(C)NCC(O)COc1ccc(CC(N)=O)cc1 (stereo not given) [Atenolol] | 8.56 | 6.38 |
| COP(=O)(OC)SCn1c(=O)oc2cc(Cl)cnc21 [Azamethiphos] | 11.6 | 11.4 |
| CN1CCCC(n2nc(Cc3ccc(Cl)cc3)c3ccccc3c2=O)CC1 (stereo not given) [Azelastine] | 16.3 | 12.9 |
| COP(=S)(OC)SCn1nnc2ccccc2c1=O [Azinphos methyl] | 13.6 | 13.4 |
| CCC1OC(=O)C(C)C(OC2CC(C)(OC)C(O)C(C)O2)C(C)C(OC2OC(C)CC(N(C)C)C2O)C(C)(O)CC(C)CN(C)C(C)C(O)C1(C)O (stereo not given) [Azithromycin] | 17.4 | 11.2 |
| CCOC(=O)CCN(SN(C)C(=O)Oc1cccc2c1OC(C)(C)C2)C(C)C [Benfuracarb] | 17 | 16.6 |
| O=C(Nc1ccccc1)c1ccccc1I [Benodanil] | 12.9 | 12.7 |
| CC(COc1ccccc1Cc1ccccc1)N1CCCCC1 (stereo not given) [Benproperine] | 18.2 | 13.1 |
| CCOC(=O)c1ccc(N)cc1 [Benzocain] | 10.8 | 10.5 |
| COc1ccc(C(=O)c2ccccc2)c(O)c1 [Benzophenone-3] | 15.3 | 15 |
| CN1C2CCC1C(C(=O)O)C(OC(=O)c1ccccc1)C2 (stereo not given) [Benzoylecgonin] | 11.6 | 11.5 |
| COc1ccc(-c2ccccc2)cc1NNC(=O)OC(C)C [Bifenazate] | 15 | 14.7 |
| c1ccc(-c2ccc(C(c3ccccc3)n3ccnc3)cc2)cc1 (stereo not given) [Bifonazol] | 16.7 | 13.9 |
| CCCCC(CC)COP(=O)(O)OCC(CC)CCCC (stereo not given) [Bis(2-ethylhexyl)phosphate] | 17.2 | 17.2 |
| O=S(=O)(c1ccc(Cl)cc1)c1ccc(Cl)cc1 [Bis(4-chlorophenyl)sulfone] | 12 | 14.9 |
| CC(C)NCC(O)COc1ccc(COCCOC(C)C)cc1 (stereo not given) [Bisoprolol] | 13.8 | 11.1 |
| CC(C)NCC(O)COc1ccc(C(=O)O)cc1 (stereo not given) [Bisoprolol_M3] | 10.4 | 6.96 |
| Oc1ccc(C(c2ccc(O)cc2)(C(F)(F)F)C(F)(F)F)cc1 [Bisphenol AF] | 14.7 | 15.9 |
| COc1ccccc1Oc1c(NS(=O)(=O)c2ccc(C(C)(C)C)cc2)nc(-c2ncccn2)nc1OCCO [Bosentan] | 13.4 | 14.9 |
| COc1cc2c(cc1OC)C13CCN4CC5=CCOC6CC(=O)N2C1C6C5CC43 (stereo not given) [Brucine] | 12.1 | 8.1 |
| CCCC1OC2CC3C4CCC5=CC(=O)C=CC5(C)C4C(O)CC3(C)C2(C(=O)CO)O1 (stereo not given) [Budesonide] | 15.1 | 14.8 |
| CC(NC(C)(C)C)C(=O)c1cccc(Cl)c1 (stereo not given) [Bupropion] | 15.6 | 10.5 |

| SMILES | LC retention time [1] [min] | LC retention time [2] [min] |
| --- | --- | --- |
| C=CCOC(=O)C(C)(C)OC(=O)c1cc(-n2c(=O)cc(C(F)(F)F)n(C)c2=O)ccc1Cl [Butafenacil] | 15.1 | 14.8 |
| CC12CCC(=O)C=C1C=CC1C2CCC2(C)C1CCC21CCC(=O)O1 (stereo not given) [Canrenone] | 14.5 | 14.2 |
| NC(=O)N1c2ccccc2C2OC2c2ccccc21 (stereo not given) [Carbamazepine-10,11-epoxide] | 11 | 10.9 |
| CNC(=O)Oc1cccc2c1OC(C)(C)C2 [Carbofuran] | 12 | 11.8 |
| CCOC(=O)C(Cl)Cc1cc(-n2nc(C)n(C(F)F)c2=O)c(F)cc1Cl (stereo not given) [Carfentrazone-ethyl] | 15.8 | 15.4 |
| CC1C(C)(C)C2=C(C(=O)CCC2)C1(C)C (stereo not given) [Cashmeran] | 16.6 | 16.2 |
| CC(=O)c1cc(C(C)(C)C)cc2c1CCC2(C)C [Celestolide] | 17.9 | 17.5 |
| O=C(O)COCCN1CCN(C(c2ccccc2)c2ccc(Cl)cc2)CC1 (stereo not given) [Cetirizine] | 14.8 | 13.6 |
| CC=C(C)C(=O)OC1CCC2(C)C3CCC4C5(O)CC(O)C6(O)C(CN7CC(C)CCC7C6(C)O)C5(O)CC42OC13O (stereo not given) [Cevadine] | 16.4 | 12.6 |
| CCOP(=O)(OCC)OC(=CCl)c1ccc(Cl)cc1Cl [Chlorfenvinphos] | 16.1 | 15.8 |
| NC(=NCCCCCCN=C(N)N=C(N)Nc1ccc(Cl)cc1)N=C(N)Nc1ccc(Cl)cc1 [Chlorohexidine] | 6.38 | 12.2 |
| COc1nc(C)nc(NC(=O)NS(=O)(=O)c2ccccc2Cl)n1 [Chlorsulfuron] | 9.11 | 12.3 |
| O=C(O)c1cn(C2CC2)c2cc(N3CCNCC3)c(F)cc2c1=O [Ciprofloxacin] | 7.67 | 8.34 |
| CCC1OC(=O)C(C)C(OC2CC(C)(OC)C(O)C(C)O2)C(C)C(OC2OC(C)CC(N(C)C)C2O)C(C)(OC)CC(C)C(=O)C(C)C(O)C1(C)O (stereo not given) [Clarithromycin] | 16.6 | 14.1 |
| CC(C)(C)C(=O)C(Oc1ccc(Cl)cc1)n1ccnc1 (stereo not given) [Climbazole] | 15.1 | 13.2 |
| CC1CC2C3CCC4=CC(=O)C=CC4(C)C3(F)C(O)CC2(C)C1(O)C(=O)CCl (stereo not given) [Clobetasol] | 14.4 | 14.1 |
| Clc1ccccc1-c1nnc(-c2ccccc2Cl)nn1 [Clofentezine (Apolo)] | 16.3 | 15.9 |
| Clc1cccc(Cl)c1NC1=NCCN1 [Clonidine] | 10.2 | 7.02 |
| COC(=O)C(c1ccccc1Cl)N1CCc2sccc2C1 (stereo not given) [Clopidogrel] | 16.5 | 15.4 |
| O=C(O)c1nc(Cl)ccc1Cl [Clopyralid] | 3.37 | 6.09 |
| CCCCCC(C)OC(=O)COc1ccc(Cl)c2cccnc12 (stereo not given) [Cloquintocet-mexyl] | 17.3 | 16.9 |
